In patent US11267810B2, “Aminopyrimidine compound and composition comprising same and use thereof” (Shenzhen TargetRx, Inc., priority 2017, dated 2022):
Where two headings read alike, the source gives them in different places.

Key:
EGFR mutant kinase = conditions: cited from earlier work
[1] = tested on: Skin cancer cell line A431 (WT); experiment: MTS cell viability assay, A431; type: cell-based; conditions: Homo sapiens, A-431, 72 hours
Method: (§1) Cell line: Skin cancer cell line A431 (purchased from the American Type Culture Collection (ATCC)); lung cancer cells NCI-H1975 (purchased from the American Type Culture Collection (ATCC)) and HCC827 (purchased from the American Type Culture Collection (ATCC)). All of the cells were cultured in RPMI1640 medium containing 10% fetal bovine serum, 100 U/ml penicillin, and 100 μg/ml streptomycin.
(§2) Reagents and materials: RPMI-1640 (GIBCO, Cat. No. A10491-01); fetal bovine serum (GIBCO, Cat. No. 10099141); 0.25% trypsin-EDTA (GIBCO, Cat. No. 25200); penicillin-streptomycin, liquid (GIBCO, Cat. No. 15140-122); DMSO (Sigma, Cat. No. D2650); MTS Test Kit (Promega, Cat. No. G3581), 96-well plate (Corning, Cat. No. 3365).
(§3) Compound preparation: the test compound was dissolved in DMSO to make a 20 mM stock solution and stored at −20° C. It was diluted in DMSO with a 3-fold series gradient dilution for 10 times. The dilutions were diluted 4 fold with cell culture medium.
(§4) MTS cell viability assay: cells in logarithmic growth phase was digested with 0.25% trypsin-EDTA, and 150 μl of the cells was inoculated in 96-well plates at an optimized density. After 24 hours, the compound diluted 4 fold by adding the medium, 50 μl/well (generally 10 Concentrations were selected: 100, 33.3, 11.1, 3.70, 1.23, 0.412, 0.137, 0.0457, 0.0152, 0.00508 μM). A well added with the same volume of 0.5% DMSO was used as a control. After the cells were cultured for further 72 hours, the cell viability was detected with MTS.
(§5) Specific procedure: cells were adhered, the medium was discarded, and a mixture containing 20 μL MTS and 100 μL medium was added to each well. The OD490 was detected after being placed in the incubator for 1-4 hours, and the OD650 value was used as a reference. A dose-effect curve was prepared using GraphPad Prism software and IC50 was calculated.

WT EGFR = WT EGFR (Homo sapiens (Human), UniProt P00533); experiment: WT EGFR kinase assay (HTRF Kinase TK kit); type: biochemical
Chain of WT EGFR (P00533 25-1210): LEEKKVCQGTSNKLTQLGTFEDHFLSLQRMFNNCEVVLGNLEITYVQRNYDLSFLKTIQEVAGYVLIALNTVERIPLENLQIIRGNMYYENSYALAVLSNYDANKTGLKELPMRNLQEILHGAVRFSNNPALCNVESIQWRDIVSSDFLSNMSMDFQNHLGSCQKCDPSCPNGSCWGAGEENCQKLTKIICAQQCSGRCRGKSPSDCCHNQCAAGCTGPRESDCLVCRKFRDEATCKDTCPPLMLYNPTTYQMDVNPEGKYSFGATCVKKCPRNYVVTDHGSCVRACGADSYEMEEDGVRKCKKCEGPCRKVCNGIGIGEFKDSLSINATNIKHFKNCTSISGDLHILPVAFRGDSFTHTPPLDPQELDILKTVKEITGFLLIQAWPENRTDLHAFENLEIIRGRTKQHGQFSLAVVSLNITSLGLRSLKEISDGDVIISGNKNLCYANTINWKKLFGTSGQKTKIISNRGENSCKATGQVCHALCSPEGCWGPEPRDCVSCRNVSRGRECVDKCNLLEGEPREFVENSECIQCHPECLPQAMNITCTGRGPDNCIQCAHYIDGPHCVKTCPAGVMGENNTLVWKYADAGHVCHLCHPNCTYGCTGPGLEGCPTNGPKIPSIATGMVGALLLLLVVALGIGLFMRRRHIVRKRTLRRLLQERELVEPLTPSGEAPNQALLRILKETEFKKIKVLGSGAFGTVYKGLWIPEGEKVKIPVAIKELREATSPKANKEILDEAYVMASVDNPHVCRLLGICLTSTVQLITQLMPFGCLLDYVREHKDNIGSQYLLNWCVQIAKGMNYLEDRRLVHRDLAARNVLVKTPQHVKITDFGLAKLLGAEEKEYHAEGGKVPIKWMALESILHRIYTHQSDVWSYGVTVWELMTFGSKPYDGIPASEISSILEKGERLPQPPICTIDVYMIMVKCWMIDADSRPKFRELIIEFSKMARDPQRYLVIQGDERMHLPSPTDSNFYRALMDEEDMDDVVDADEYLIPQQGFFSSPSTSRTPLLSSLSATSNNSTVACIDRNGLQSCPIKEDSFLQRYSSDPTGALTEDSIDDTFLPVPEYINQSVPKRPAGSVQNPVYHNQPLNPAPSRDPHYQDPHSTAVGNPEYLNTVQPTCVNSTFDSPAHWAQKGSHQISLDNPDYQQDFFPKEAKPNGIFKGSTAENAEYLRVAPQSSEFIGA
From the text: (§6) WT EGFR (Cana, Cat. No. 08-115), EGFR [L858R] (Carna, Cat. No. 08-502), EGFR [L858R/T790M] (Carna, Cat. No. 08-510), ATP (Sigma, Cat. No. A7699-1G), DMSO (Sigma, Cat. No. D2650), 96-well plate (Corning, Cat. No. 3365), 384-well plate (Greiner, Cat. No. 784076), HTRF Kinase TK Kit (Cisbio, Cat. No. 62TK0PEJ), Erlotinib (Selleckchem, Cat. No. S7787), EGFR [d746-750] (Life Technologies, Cat. No. PV6178), 5× Kinase Buffer A (Life Technologies, Cat. No. PV3186), Kinase Tracer 199 (Life Technologies, Cat. No. PV5830), LanthaScreen® Eu-anti-GST antibody (Life Technologies, Cat. No. PV5594).
(§7) Compound preparation: the test compound was dissolved in DMSO to make a 20 mM stock solution. Then, it was diluted in DMSO with a 3-fold series gradient dilution for 10 times. The dilutions were diluted 10 fold with buffer when dosing.
(§8) WT EGFR and EGFR [L858R/T790M] kinase assay: WT EGFR or EGFR [L858R/T790M] kinase was mixed with different concentrations of pre-diluted compounds for 10 minutes in 5× Kinase Buffer A in duplicate. The corresponding substrate and ATP were added and reacted at room temperature for 20 minutes (in which a negative and a positive control were set: the negative control is blank and the positive control is AZD9291). After the reaction, the detection reagent (the reagent in the HTRF Kinase TK kit) was added, and after incubation at room temperature for 30 minutes, the enzyme activity in the presence of the compounds of the present disclosure at each concentration was measured by an Evnvision microplate reader, and the inhibition of the enzyme by the compound at each concentrations were calculated. The inhibitions of the enzyme activity by the compounds at different concentrations were then fitted using Graphpad 5.0 software according to the four-parameter equation, and the IC50 values were calculated.

EGFR [L858R/T790M] = EGFR [L858R/T790M] (Homo sapiens (Human), UniProt P00533, L858R/T790M); experiment: EGFR [L858R/T790M] kinase assay (HTRF Kinase TK kit); type: biochemical
Chain of EGFR [L858R/T790M] (P00533 25-1210 T790M/L858R): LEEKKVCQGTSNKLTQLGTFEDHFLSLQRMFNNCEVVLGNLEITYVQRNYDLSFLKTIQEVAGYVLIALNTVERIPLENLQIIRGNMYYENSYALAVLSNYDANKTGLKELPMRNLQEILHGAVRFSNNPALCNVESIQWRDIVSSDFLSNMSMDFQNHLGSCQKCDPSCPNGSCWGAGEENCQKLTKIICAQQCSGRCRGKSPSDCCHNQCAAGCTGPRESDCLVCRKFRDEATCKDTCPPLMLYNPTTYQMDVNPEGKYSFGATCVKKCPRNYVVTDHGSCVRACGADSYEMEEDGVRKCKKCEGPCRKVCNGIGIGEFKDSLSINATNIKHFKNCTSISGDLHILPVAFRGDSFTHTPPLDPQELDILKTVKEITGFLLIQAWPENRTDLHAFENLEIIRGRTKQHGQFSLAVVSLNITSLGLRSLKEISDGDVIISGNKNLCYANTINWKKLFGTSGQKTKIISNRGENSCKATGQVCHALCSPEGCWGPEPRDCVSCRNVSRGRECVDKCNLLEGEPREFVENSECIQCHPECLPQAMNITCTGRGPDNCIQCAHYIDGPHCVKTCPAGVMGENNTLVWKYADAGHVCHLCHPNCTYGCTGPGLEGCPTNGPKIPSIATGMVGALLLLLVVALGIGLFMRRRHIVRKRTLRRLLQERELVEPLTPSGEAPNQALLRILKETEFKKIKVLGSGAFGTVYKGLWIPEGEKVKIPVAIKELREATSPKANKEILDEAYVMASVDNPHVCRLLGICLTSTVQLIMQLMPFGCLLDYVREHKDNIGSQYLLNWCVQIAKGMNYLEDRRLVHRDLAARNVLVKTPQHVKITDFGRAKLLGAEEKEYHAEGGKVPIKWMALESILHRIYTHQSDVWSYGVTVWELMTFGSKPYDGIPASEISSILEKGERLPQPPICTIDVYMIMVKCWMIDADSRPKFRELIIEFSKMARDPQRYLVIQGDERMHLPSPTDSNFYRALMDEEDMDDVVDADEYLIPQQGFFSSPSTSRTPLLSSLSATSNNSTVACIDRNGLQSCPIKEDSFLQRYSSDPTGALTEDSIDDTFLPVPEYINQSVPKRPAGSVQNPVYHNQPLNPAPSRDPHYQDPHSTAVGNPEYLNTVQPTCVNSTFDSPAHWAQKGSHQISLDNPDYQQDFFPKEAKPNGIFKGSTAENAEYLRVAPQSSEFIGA
From the text: as §6, §7, §8

[2] = Pharmacokinetic experiment in rats; type: in vivo, Sprague-Dawley rats; conditions: rat; for AUC(0-t) / Cmax / Tmax / half-life / AUC(0-inf) / clearance / MRT inf / Vd / bioavailability: male, Sprague-Dawley, plasma; for AUC(0-inf): read-out: AUCINF—pred; for clearance: read-out: Cl—pred (converted); for MRT inf: read-out: MRTINF—pred; for Vd: read-out: Vz—pred; for bioavailability: PO 10 mg/kg vs IV 0.5 mg/kg
Method: Six male Sprague-Dawley rats, 7 to 8 weeks old, weighing approximately 210 g, were divided into 2 groups with 3 rats in each group. The pharmacokinetic differences were compared after administering to the rats a single dose of compounds through vein (in vein 0.5 mg/kg) or mouth (orally 10 mg/kg).
The rats were fed with standard feed, given water, and fasted 16 hours before the experiment. The drugs were dissolved with PEG400 and dimethyl sulfoxide. Orbital blood was collected at the time point of 0.083, 0.25, 0.5, 1, 2, 4, 6, 8, 12 and 24 hours after administration.
The rats were anesthetized for a short time after inhaling ether, and 300 μL of blood sample was collected from the orbit and put into a test tube, which contains 30 μL of 1% heparin salt solution. The test tubes were dried overnight at 60° C. prior to use. After the blood sample collection at the last time point, the rats were killed after the ether anesthesia.
Immediately after the blood sample collection, the test tubes were gently inverted at least 5 times to ensure the fully mixing and placed them on ice. The blood samples were centrifuged at 4° C., 5000 rpm for 5 minutes to separate the plasma from the red blood cells. 100 μL of plasma was pipetted into a clean plastic centrifuge tube, with the name of the compound and time point on it. The plasma was stored at −80° C. before analysis, and LC-MS/MS was used to determine the concentration of the compounds disclosed herein in plasma. Pharmacokinetic parameters were calculated based on the plasma concentrations of each animal at different time points.

[3] = tested on: lung cancer cells HCC827 (Del19); experiment: MTS cell viability assay, HCC827; type: cell-based; conditions: Homo sapiens, 72 hours
Method: as §1, §2, §3, §4, §5

[4] = tested on: lung cancer cells NCI-H1975 (L858R/T790M); experiment: MTS cell viability assay, NCI-H1975; type: cell-based; conditions: Homo sapiens, 72 hours
Method: as §1, §2, §3, §4, §5

IC50 [1] [nM] | IC50 (WT EGFR) [nM] | IC50 (EGFR [L858R/T790M]) [nM] | AUC(0-t) ([2]; IV 0.5 mg/kg single dose) [ng·h/mL] | Cmax ([2]; IV 0.5 mg/kg single dose) [ng/mL] | Tmax ([2]; IV 0.5 mg/kg single dose) [h] | half-life ([2]; IV 0.5 mg/kg single dose) [h] | AUC(0-inf) ([2]; IV 0.5 mg/kg single dose) [ng·h/mL] | clearance ([2]; IV 0.5 mg/kg single dose) [mL/min/kg] | MRT inf ([2]; IV 0.5 mg/kg single dose) [h] | Vd ([2]; IV 0.5 mg/kg single dose) [L/kg] | AUC(0-t) ([2]; PO 10 mg/kg single dose) [ng·h/mL] | Cmax ([2]; PO 10 mg/kg single dose) [ng/mL] | Tmax ([2]; PO 10 mg/kg single dose) [h] | half-life ([2]; PO 10 mg/kg single dose) [h] | AUC(0-inf) ([2]; PO 10 mg/kg single dose) [ng·h/mL] | MRT inf ([2]; PO 10 mg/kg single dose) [h] | bioavailability [2] [%] | IC50 [3] [nM] | IC50 [4] [nM] | SMILES | also measured
200 to 450 | < 2 | < 0.3 | 477 | 323 | 0.08 | 3.78 | 498 | 17.5 | 2.95 | 5.73 | 1600 | 115 | 1.33 | 7.55 | 1800 | 9.19 | 16.7 | 4.2 | 4.7 | C=CC(=O)Nc1cc(Nc2nccc(-n3cc(CN(C)C)c(-c4ccccc4)n3)n2)c(OC)cc1N1CCOCC1 [Compound T-0, reference compound] | inhibitory activity against EGFR mutant kinase (in words) (EGFR mutant kinase): significant inhibitory activity; Cl—pred ([2]; PO 10 mg/kg single dose): 94.2 mL/min/kg; Vz—pred ([2]; PO 10 mg/kg single dose): 61.56 L/kg
200 to 450 | < 2 | < 0.3 |  |  |  |  |  |  |  |  |  |  |  |  |  |  |  | 2 | 4.23 | [2H]c1c([2H])c([2H])c(-c2nn(-c3ccnc(Nc4cc(NC(=O)C=C)c(N5CCOCC5)cc4OC)n3)cc2CN(C([2H])([2H])[2H])C([2H])([2H])[2H])c([2H])c1[2H] [Compound T-6, N-(5-((4-(4-((bis(methyl-d3)amino)methyl)-3-(phenyl-d5)-1H-pyrazol-1-yl)pyrimidin-2-yl)amino)-4-methoxy-2-morpholinophenyl)acrylamide] | 
200 to 450 | < 2 | < 0.3 |  |  |  |  |  |  |  |  |  |  |  |  |  |  |  | 1.98 | 3.57 | [2H]c1c([2H])c([2H])c(-c2nn(-c3ccnc(Nc4cc(NC(=O)C=C)c(N5CCOCC5)cc4OC)n3)cc2CN(C)C)c([2H])c1[2H] [Compound T-2, N-(5-((4-(4-((dimethylamino)methyl)-3-(phenyl-d5)-1H-pyrazol-1-yl)pyrimidin-2-yl)amino)-4-methoxy-2-morpholinophenyl)acrylamide] | 

Further lines, the molecule ahead of its results:

SMILES | IC50 [1] [nM] | IC50 (WT EGFR) [nM] | IC50 (EGFR [L858R/T790M]) [nM] | AUC(0-t) ([2]; IV 0.5 mg/kg single dose) [ng·h/mL] | Cmax ([2]; IV 0.5 mg/kg single dose) [ng/mL] | Tmax ([2]; IV 0.5 mg/kg single dose) [h] | half-life ([2]; IV 0.5 mg/kg single dose) [h] | AUC(0-inf) ([2]; IV 0.5 mg/kg single dose) [ng·h/mL] | clearance ([2]; IV 0.5 mg/kg single dose) [mL/min/kg] | MRT inf ([2]; IV 0.5 mg/kg single dose) [h] | Vd ([2]; IV 0.5 mg/kg single dose) [L/kg] | AUC(0-t) ([2]; PO 10 mg/kg single dose) [ng·h/mL] | Cmax ([2]; PO 10 mg/kg single dose) [ng/mL] | Tmax ([2]; PO 10 mg/kg single dose) [h] | half-life ([2]; PO 10 mg/kg single dose) [h] | AUC(0-inf) ([2]; PO 10 mg/kg single dose) [ng·h/mL] | MRT inf ([2]; PO 10 mg/kg single dose) [h] | bioavailability [2] [%] | IC50 [3] [nM] | IC50 [4] [nM] | also measured
[2H]C([2H])([2H])Oc1cc(N2CCOCC2)c(NC(=O)C=C)cc1Nc1nccc(-n2cc(CN(C)C)c(-c3ccccc3)n2)n1 [Compound T-3, N-(5-((4-(4-((dimethylamino)methyl)-3-phenyl-1H-pyrazol-1-yl)pyrimidin-2-yl)amino)-4-(methoxy-d3)-2-morpholinophenyl)acrylamide] | 200 to 450 | < 2 | < 0.3 | 436 | 299 | 0.08 | 3.56 | 456 | 18.5 | 3.34 | 5.71 | 1650 | 120 | 4 | 7.48 | 1920 | 8.67 | 18.9 | 2.27 | 4.53 | Cl—pred ([2]; PO 10 mg/kg single dose): 88 mL/min/kg; Vz—pred ([2]; PO 10 mg/kg single dose): 56.99 L/kg; Cmax, AUClast and oral availability (F %) compared with compound T-0 (in words) ([2]; orally): better metabolic parameters
[2H]c1c(C([2H])([2H])N(C)C)c(-c2ccccc2)nn1-c1ccnc(Nc2cc(NC(=O)C=C)c(N3CCOCC3)cc2OC)n1 [Compound T-1, N-(5-((4-(4-((dimethylamino)methyl-d2)-3-phenyl-1H-pyrazol-1-yl-5-d)pyrimidin-2-yl)amino)-4-methoxy-2-morpholinophenyl)acrylamide] | 200 to 450 | < 2 | < 0.3 |  |  |  |  |  |  |  |  |  |  |  |  |  |  |  | 1.56 | 3.62 | 
[2H]C([2H])([2H])N(Cc1cn(-c2ccnc(Nc3cc(NC(=O)C=C)c(N4CCOCC4)cc3OC)n2)nc1-c1ccccc1)C([2H])([2H])[2H] [Compound T-4, N-(5-((4-(4-((bis(methyl-d3)amino)methyl)-3-phenyl-1H-pyrazol-1-yl)pyrimidin-2-yl)amino)-4-methoxy-2-morpholinophenyl)acrylamide] | 200 to 450 | < 2 | < 0.3 |  |  |  |  |  |  |  |  |  |  |  |  |  |  |  | 2.5 | 5.02 | 
